The record followed here is ChEMBL document CHEMBL5149995, “An Alkynylpyrimidine-Based Covalent Inhibitor That Targets a Unique Cysteine in NF-κB-Inducing Kinase” (J Med Chem, 2021).

Values after ≈ are worked out from the molar mass of the structure shown. Active and inactive are the calls of the source. The calls are words filed in the database; no cut-off is given here.

For data set [1], the target named is Mitogen-activated protein kinase kinase kinase 14 (Homo sapiens, UniProt Q99558, S549D). The experiment in a line: Inhibition of His6-tagged human NIK (330 to 680 residues) S549D mutant expressed in baculovirus-infected Sf9 cells incubated for 30 mins in presence of ATP by ADP-GloTM assay.
Sequence of Mitogen-activated protein kinase kinase kinase 14 (Q99558 whole entry S549D, the tested form may be a part): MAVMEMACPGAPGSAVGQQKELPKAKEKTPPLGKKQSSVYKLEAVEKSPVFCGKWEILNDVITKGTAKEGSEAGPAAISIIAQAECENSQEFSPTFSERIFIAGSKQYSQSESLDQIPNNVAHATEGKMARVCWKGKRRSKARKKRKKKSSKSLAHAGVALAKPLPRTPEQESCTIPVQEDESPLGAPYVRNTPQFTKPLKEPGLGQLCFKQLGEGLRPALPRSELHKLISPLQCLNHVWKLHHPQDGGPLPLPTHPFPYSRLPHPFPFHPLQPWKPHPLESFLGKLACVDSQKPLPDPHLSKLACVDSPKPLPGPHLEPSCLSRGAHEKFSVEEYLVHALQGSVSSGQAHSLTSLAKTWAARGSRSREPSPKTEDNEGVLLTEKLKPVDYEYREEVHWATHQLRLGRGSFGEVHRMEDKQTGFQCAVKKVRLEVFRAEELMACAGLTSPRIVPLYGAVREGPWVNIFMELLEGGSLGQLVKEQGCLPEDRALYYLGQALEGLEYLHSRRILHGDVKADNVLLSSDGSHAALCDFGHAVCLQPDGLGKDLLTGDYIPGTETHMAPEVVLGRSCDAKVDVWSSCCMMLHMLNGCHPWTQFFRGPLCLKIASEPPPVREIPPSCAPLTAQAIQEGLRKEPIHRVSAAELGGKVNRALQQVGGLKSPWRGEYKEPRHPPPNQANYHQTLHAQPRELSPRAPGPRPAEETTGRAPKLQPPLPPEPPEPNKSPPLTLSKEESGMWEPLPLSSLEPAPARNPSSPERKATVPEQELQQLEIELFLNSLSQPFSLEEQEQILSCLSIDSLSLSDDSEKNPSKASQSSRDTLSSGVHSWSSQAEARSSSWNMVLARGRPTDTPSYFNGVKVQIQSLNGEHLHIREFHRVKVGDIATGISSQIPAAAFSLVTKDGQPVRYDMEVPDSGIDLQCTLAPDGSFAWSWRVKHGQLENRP
The subject of data set [2] is Maver1. The experiment in a line: Antiproliferative activity against NIK-activated human MAVER-1 cells assessed as inhibition of cell growth incubated for 72 hrs by XTT assay. In kind it is functional. A general note: Tetrazolium assays rely on reduction of a dye to a coloured formazan, in cell work by metabolically active cells.
Data set [3] has as its system JIM3 (Homo sapiens). Briefly: Antiproliferative activity against NIK-independent human JIM3 cells assessed as inhibition of cell growth incubated for 72 hrs by XTT assay. As to conditions: JIM3, 72 h.
Data set [4] has as its system MCF7. The experiment in a line: Antiproliferative activity against NIK-independent human MCF7 cells assessed as inhibition of cell growth incubated for 72 hrs by XTT assay. In kind it is functional.
Data set [5] relates to Z-138. Briefly: Antiproliferative activity against NIK-activated human Z138 cells assessed as inhibition of cell growth incubated for 72 hrs by XTT assay. The format is functional.
For data set [6], the target named is Receptor tyrosine-protein kinase erbB-4 (Homo sapiens) (UniProt Q15303). The experiment in a line: Inhibition of HER4 (unknown origin) at 1 uM relative to control.
Sequence of Receptor tyrosine-protein kinase erbB-4 (Homo sapiens) (Q15303 whole entry): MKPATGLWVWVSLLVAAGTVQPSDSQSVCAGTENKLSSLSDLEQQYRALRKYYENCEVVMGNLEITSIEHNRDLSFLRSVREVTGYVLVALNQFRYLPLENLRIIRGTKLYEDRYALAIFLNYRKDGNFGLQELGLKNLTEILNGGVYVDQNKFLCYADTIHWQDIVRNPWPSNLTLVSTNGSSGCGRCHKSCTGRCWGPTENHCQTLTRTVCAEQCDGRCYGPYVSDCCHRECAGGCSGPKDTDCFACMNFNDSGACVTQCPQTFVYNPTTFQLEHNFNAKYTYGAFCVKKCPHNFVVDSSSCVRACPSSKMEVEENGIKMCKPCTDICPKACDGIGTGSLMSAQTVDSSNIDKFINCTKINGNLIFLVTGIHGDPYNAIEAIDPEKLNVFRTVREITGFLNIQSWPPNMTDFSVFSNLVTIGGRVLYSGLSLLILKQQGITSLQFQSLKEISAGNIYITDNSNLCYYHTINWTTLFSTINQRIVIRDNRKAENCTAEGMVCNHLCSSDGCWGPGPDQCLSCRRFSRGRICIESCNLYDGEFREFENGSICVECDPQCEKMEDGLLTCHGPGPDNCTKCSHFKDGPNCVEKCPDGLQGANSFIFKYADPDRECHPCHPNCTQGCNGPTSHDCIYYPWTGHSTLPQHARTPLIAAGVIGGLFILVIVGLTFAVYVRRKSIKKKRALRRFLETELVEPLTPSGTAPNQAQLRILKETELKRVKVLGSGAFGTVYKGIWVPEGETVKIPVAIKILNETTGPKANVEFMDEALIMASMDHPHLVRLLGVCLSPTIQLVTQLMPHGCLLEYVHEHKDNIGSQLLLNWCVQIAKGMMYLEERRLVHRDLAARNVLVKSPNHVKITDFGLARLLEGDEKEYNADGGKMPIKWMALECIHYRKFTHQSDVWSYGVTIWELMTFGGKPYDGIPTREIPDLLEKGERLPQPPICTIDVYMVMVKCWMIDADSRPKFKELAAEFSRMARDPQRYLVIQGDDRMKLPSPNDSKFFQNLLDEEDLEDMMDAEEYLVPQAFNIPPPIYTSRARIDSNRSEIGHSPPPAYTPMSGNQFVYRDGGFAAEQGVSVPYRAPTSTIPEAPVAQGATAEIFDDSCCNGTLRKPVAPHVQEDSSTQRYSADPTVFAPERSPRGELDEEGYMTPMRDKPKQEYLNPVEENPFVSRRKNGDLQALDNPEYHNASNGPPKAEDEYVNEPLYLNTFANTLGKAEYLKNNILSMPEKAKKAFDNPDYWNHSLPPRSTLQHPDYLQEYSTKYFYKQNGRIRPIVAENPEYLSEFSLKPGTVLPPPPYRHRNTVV
Data set [7] can be described thus: Solubility of the compound. In kind it is physicochemical.
A short description of data set [8]: Intrinsic clearance in rat hepatocytes measured per million of cells. In kind it is ADME, cell-based, Hepatocyte. As to conditions: read-out: CLH.
Data set [9] deals with Mitogen-activated protein kinase kinase kinase 9 (Homo sapiens) (UniProt P80192). Briefly: Inhibition of MLK1 (unknown origin) at 1 uM relative to control.
Sequence of Mitogen-activated protein kinase kinase kinase 9 (Homo sapiens) (P80192 whole entry, looked up): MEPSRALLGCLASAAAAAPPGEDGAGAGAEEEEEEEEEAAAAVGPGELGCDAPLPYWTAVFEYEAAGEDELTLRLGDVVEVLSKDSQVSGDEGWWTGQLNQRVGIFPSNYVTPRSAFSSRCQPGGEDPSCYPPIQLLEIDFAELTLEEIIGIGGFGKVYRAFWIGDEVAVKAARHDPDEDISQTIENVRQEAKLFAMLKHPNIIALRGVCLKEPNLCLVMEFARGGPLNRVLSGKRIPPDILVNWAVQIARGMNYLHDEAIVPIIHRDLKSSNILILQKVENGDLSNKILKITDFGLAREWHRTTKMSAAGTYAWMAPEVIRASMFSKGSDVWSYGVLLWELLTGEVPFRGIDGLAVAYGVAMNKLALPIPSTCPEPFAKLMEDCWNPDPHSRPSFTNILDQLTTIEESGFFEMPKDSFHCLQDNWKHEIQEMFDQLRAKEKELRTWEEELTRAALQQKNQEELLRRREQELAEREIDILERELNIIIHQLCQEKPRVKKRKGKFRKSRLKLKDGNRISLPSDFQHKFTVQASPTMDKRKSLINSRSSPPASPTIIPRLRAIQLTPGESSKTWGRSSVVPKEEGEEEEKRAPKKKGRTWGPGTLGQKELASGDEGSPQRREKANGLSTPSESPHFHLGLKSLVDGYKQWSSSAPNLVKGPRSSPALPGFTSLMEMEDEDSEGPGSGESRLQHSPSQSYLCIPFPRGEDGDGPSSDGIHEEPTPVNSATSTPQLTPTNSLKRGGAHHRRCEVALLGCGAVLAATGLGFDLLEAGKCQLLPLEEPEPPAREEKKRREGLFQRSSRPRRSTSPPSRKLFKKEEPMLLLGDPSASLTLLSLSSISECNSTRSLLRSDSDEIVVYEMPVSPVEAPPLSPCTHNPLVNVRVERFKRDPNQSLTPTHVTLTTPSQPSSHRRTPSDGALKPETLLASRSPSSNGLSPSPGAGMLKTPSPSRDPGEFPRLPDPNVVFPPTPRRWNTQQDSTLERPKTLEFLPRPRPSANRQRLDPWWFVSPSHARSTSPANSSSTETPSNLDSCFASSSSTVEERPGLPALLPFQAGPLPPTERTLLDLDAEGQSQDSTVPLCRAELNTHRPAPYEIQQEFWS
For data set [10], the target named is Receptor-interacting serine/threonine-protein kinase 2 (Homo sapiens) (UniProt O43353). Briefly: Inhibition of RIPK2 (unknown origin) at 1 uM relative to control.
Sequence of Receptor-interacting serine/threonine-protein kinase 2 (Homo sapiens) (O43353 whole entry): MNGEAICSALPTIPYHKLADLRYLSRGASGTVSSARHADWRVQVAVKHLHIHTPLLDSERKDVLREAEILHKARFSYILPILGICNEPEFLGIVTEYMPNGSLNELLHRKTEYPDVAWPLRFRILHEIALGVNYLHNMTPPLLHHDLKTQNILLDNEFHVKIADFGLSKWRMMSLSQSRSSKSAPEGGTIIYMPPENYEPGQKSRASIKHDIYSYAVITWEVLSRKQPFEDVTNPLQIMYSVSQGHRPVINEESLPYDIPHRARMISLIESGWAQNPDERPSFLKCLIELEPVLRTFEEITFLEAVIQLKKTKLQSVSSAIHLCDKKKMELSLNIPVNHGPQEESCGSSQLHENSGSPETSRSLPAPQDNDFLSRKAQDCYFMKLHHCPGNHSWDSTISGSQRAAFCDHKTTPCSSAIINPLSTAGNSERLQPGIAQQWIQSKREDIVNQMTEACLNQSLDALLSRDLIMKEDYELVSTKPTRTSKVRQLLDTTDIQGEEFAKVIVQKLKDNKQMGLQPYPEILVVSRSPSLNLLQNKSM
For data set [11], the target named is Aurora kinase B (Homo sapiens) (UniProt Q96GD4). Briefly: Inhibition of Aurora B (unknown origin) at 1 uM relative to control.
Data set [12] can be described thus: Intrinsic clearance in human hepatocytes measured per million of cells. In kind it is ADME, cell-based, Hepatocyte. To be noted: read-out: CLH.
Data set [13] concerns the target Serine/threonine-protein kinase SIK2 (Homo sapiens) (UniProt Q9H0K1). Briefly: Inhibition of SIK2 (unknown origin) at 1 uM relative to control.
Data set [14] has as its target Platelet-derived growth factor receptor alpha (Homo sapiens) (UniProt P16234). The experiment in a line: Inhibition of PDGFRA (unknown origin) at 1 uM relative to control.
Data set [15] is described as follows: Lipophilicity, log D of the compound at pH 7.4. The format is physicochemical. To be noted: buffer.
For data set [16], the target named is Mitogen-activated protein kinase kinase kinase 14 (Homo sapiens) (UniProt Q99558). The experiment in a line: Covalent binding affinity to NIK (unknown origin) assessed as protein-compound adduct formation by measuring increase in 330Da mass at 100 uM incubated for 6 hrs by mass spectrometry.
Sequence of Mitogen-activated protein kinase kinase kinase 14 (Homo sapiens) (Q99558 whole entry, looked up, the tested form may be a part): as the sequence (Q99558 whole entry S549D, the tested form may be a part) above, with D549S counted along it
The target is the same in data set [17]. Briefly: Covalent binding affinity to NIK (unknown origin) assessed as labeling at Cys444 residue using Ala438-Arg451 peptide incubated for 18 hrs measured after tryptic digestion by MS/MS fragmentation spectral analysis.
Data set [18] has as its target T1, Serine/threonine-protein kinase Sgk1 (Homo sapiens) (UniProt O00141).
T1 sequence (whole entry): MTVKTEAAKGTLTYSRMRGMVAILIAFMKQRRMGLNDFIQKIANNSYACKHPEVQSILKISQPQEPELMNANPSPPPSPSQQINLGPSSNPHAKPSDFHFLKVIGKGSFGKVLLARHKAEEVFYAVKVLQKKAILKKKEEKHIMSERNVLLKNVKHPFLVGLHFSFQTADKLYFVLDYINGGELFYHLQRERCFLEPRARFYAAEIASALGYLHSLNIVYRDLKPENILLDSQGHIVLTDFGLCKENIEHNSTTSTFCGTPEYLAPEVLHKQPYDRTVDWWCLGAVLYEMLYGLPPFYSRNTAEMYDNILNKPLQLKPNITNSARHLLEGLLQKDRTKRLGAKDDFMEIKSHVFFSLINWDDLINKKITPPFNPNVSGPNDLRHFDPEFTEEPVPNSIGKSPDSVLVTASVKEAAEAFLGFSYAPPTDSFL
Briefly: Inhibition of SGK1 (unknown origin) at 1 uM relative to control.

The nature of data set [19]: Apparent permeability across basolateral to apical side in human Caco-2 cells. In kind it is ADME, cell-based. (Caco-2 cells form a polarised layer with tight junctions and transporters.)
The species named for data set [20] is Homo sapiens. Briefly: Inhibition of VEGFR (unknown origin) at 1 uM relative to control.
Data set [21] addresses T2, Mitogen-activated protein kinase kinase kinase 7 (Homo sapiens) (UniProt O43318).
T2 sequence (whole entry): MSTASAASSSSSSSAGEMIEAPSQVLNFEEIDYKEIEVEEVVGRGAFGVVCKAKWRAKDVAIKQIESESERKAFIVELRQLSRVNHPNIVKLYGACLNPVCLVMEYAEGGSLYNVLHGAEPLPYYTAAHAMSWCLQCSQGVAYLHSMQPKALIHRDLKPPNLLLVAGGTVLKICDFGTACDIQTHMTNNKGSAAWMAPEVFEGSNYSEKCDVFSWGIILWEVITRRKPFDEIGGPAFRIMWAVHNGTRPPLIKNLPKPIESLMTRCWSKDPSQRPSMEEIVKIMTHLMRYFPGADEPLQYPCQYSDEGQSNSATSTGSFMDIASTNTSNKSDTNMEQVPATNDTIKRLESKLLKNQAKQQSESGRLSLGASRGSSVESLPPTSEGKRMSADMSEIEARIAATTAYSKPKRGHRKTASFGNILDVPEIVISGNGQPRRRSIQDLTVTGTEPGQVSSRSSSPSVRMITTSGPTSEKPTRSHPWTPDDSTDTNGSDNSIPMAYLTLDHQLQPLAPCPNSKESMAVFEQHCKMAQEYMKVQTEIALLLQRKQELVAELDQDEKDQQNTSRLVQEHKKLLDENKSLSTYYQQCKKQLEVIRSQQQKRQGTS
Briefly: Inhibition of TAK1 (unknown origin) at 1 uM relative to control.

Data set [22] concerns the target Tyrosine-protein kinase BTK (Homo sapiens) (UniProt Q06187). Briefly: Inhibition of BTK (unknown origin) at 1 uM relative to control.
Data set [23] is described as follows: Apparent permeability across apical to basolateral side in human Caco-2 cells. In kind it is ADME, cell-based.

Sequence of Serine/threonine-protein kinase SIK2 (Homo sapiens) (Q9H0K1 whole entry, looked up): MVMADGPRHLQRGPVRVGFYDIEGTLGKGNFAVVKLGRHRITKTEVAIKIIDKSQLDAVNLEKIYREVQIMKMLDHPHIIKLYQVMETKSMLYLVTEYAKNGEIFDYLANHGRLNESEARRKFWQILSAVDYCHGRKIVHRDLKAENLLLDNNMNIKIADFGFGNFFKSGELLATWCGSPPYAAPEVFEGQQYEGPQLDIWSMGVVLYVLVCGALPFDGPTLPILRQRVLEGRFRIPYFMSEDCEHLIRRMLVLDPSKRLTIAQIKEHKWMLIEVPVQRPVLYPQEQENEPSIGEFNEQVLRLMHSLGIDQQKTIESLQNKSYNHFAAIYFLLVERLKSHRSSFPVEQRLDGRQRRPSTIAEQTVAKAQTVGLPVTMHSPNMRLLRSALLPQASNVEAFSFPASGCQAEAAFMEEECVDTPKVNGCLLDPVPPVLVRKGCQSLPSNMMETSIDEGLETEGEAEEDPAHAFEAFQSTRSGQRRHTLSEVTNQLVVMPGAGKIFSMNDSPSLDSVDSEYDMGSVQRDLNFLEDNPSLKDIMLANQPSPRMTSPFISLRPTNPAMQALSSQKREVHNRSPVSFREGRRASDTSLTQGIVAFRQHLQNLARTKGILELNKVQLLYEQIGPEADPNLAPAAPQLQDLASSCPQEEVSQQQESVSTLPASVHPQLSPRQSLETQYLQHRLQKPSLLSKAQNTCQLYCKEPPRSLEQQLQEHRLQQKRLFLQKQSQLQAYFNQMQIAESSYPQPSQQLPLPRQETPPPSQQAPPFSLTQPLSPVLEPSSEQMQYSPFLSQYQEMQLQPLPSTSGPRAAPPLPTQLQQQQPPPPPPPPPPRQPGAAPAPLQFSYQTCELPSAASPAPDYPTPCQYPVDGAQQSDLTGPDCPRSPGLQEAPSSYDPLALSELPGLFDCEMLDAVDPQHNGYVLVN

Regarding `Cc1ccnc(C#Cc2ccc3ncn(-c4ccnc(N)n4)c3c2)n1`, the IC50 in data set [1] was 1.58 µM.
With `C#Cc1ccnc(C#Cc2ccc3ncn(-c4ccnc(N)n4)c3c2)c1`, the GI50 in data set [2] was 10 µM; in [3], greater than 7.94 µM; in [4] it was greater than 10 µM; in [5] it was 7.94 µM. The IC50 in [1] was 0.316 µM.
On to `C#Cc1cncc(C#Cc2ccc3ncn(-c4ccnc(N)n4)c3c2)n1`, for which the IC50 in data set [1] was 6.31 µM.
Take `COCCOc1cnc(N)nc1-c1c[nH]c2ccc(C#CC(C)(C)O)cc12`: in data set [1], the IC50 was 0.0398 µM.
Turning to `C#Cc1nccc(C#Cc2ccc3ncn(-c4ccnc(N)n4)c3c2)n1`, in data set [1], the IC50 is 39.8 µM.
On the same count and under the same terms, for `C#Cc1cc(C#Cc2ccc3ncn(-c4ccnc(N)n4)c3c2)ccn1` the value was 31.6 µM.
For `C#Cc1ccnc(C#Cc2ccc3ncn(-c4ccnc(N)n4)c3c2)n1`, the inhibition in data set [6], in data set [9], in data set [10], in data set [11], in [13] and in data set [14] was greater than 50% each time. Further, the inhibition in data set [18], in [20], in [21] and in data set [22] was greater than 50% throughout. The molecule also registered a solubility in [7] of 3.8 µM (≈ 1.28 µg/mL). Further, the hepatocyte CLint was 915 µL/min/1e6 cells in [8] and 382 µL/min/1e6 cells in data set [12]. Moreover, the GI50 in [2] was 0.398 µM; in [3], 0.501 µM; in data set [4], 0.501 µM; in data set [5], 0.631 µM. The logD in [15] was 2.8. Besides, the outcome in data set [16] and in data set [17] was Active. The IC50 in [1] is 0.2 µM. For the same molecule, the Papp B→A in [19] was found to be 0.22 ×10⁻⁶ cm/s. Also, the Papp A→B in data set [23] was 0.33 ×10⁻⁶ cm/s.
For the molecule `C=CC(=O)NCCCc1ccc2ncn(-c3ccnc(N)n3)c2c1`, the 50% inhibitory concentration (IC50) in data set [1] is 501 µM.
`C=CC(=O)NCCCCc1ccc2ncn(-c3ccnc(N)n3)c2c1`: the IC50 in [1] was 501 µM.
On the same count and under the same terms, next, `C=Cc1ccc(C#Cc2ccc3ncn(-c4ccnc(N)n4)c3c2)cn1`: 79.4 µM; `C#Cc1cccc(C#Cc2ccc3ncn(-c4ccnc(N)n4)c3c2)n1`: 3.16 µM; `CC(=O)NCCCc1ccc2ncn(-c3ccnc(N)n3)c2c1`: greater than 100 µM.
Still for that read-out and setting: next, `C=Cc1nccc(C#Cc2ccc3ncn(-c4ccnc(N)n4)c3c2)n1`: 39.8 µM.
Regarding `COc1cc(C(N)=O)nc(-c2cccc(C#C[C@]3(O)CCN(C)C3=O)c2)c1`, the GI50 in data set [2] was 3.98 µM; in data set [3], greater than 31.6 µM; in data set [4] it was greater than 31.6 µM; in data set [5] it was 20 µM.
Take `C#Cc1cnc(C#Cc2ccc3ncn(-c4ccnc(N)n4)c3c2)nc1`: the IC50 in data set [1] is 25.1 µM.
The same measure, in the same setting: for `C#Cc1cncc(C#Cc2ccc3ncn(-c4ccnc(N)n4)c3c2)c1` the value was 63.1 µM.
Turning to `CC(O)(C#Cc1ccc2c(c1)N(c1nc(N)ncc1Cl)CC2)c1nccs1` (stereo not drawn), in [1], the IC50 was 0.00398 µM.
The same measure, in the same setting: for `CCc1ccc2ncn(-c3ccnc(N)n3)c2c1` the value was 79.4 µM.
Same read-out and setting: for `C=Cc1cc(C#Cc2ccc3ncn(-c4ccnc(N)n4)c3c2)ccn1` the value was 20 µM.
Still for that read-out and setting: for `C=CC(=O)NCC#Cc1ccc2ncn(-c3ccnc(N)n3)c2c1` the value was 6.31 µM; for `C#Cc1ccc2ncn(-c3ccnc(N)n3)c2c1`, 0.251 µM.
Take `C#Cc1ncc(C#Cc2ccc3ncn(-c4ccnc(N)n4)c3c2)cn1`: in [1], the IC50 was 79.4 µM.
In the case of `C=Cc1ccnc(C#Cc2ccc3ncn(-c4ccnc(N)n4)c3c2)c1`, the GI50 was 0.501 µM in [2], 1.58 µM in data set [3], 1.26 µM in data set [4] and 0.398 µM in data set [5]. Also, the IC50 in data set [1] was 1.58 µM.
For `C=Cc1ccnc(C#Cc2ccc3ncn(-c4ccnc(N)n4)c3c2)n1`, the GI50 in [2] was 1.26 µM; in data set [3] it was 1.58 µM; in data set [4], 0.631 µM; in [5] it was 1 µM. Further, the IC50 in data set [1] is 1.58 µM.
In the case of `C#Cc1cc(C#Cc2ccc3ncn(-c4ccnc(N)n4)c3c2)ncn1`, in [1], the IC50 is 50.1 µM.
With `CC(=O)NCCCCc1ccc2ncn(-c3ccnc(N)n3)c2c1`, the IC50 in [1] was 398 µM.

For orientation: IC50 means the concentration that gives 50% inhibition. The term GI50 denotes the concentration giving 50% growth inhibition. For orientation: inhibition means the relative decrease from the control value, in per cent. As usually defined, the solubility is how much of the substance goes into solution per volume. A word on the logD: it is lipophilicity at a set pH, counting ionised and neutral species. A high value points to a more lipophilic compound. Broadly, the Papp B→A is how fast a substance crosses the layer from the basolateral side. Usually Papp A→B stands for how fast a substance crosses the layer from the apical side.
